Assay results taken from patent publication US6667335B2, “Imidazole derivatives” (Hoffmann-La Roche Inc., priority 2001, dated 2003).
pIC50: −log10 of the molar value.

Tests used:
[1] = target: T1, NMDA-receptor subtype 2B (Rattus norvegicus, UniProt P35439+Q00960); assay: 3H-Ro 25-6981 binding (displacement) on rat brain membranes; conditions: displacement of 5 nM 3H-Ro 25-6981, rat whole brain membranes (minus cerebellum and medulla oblongata), 2 hours at 4° C.
T1 construct: Membranes were prepared by homogenization of the whole brain minus cerebellum and medulla oblongata; from tissue; host or cells: rat whole brain minus cerebellum and medulla oblongata, membrane preparation
T1 sequence (Q00960 27-1482, other chains not shown): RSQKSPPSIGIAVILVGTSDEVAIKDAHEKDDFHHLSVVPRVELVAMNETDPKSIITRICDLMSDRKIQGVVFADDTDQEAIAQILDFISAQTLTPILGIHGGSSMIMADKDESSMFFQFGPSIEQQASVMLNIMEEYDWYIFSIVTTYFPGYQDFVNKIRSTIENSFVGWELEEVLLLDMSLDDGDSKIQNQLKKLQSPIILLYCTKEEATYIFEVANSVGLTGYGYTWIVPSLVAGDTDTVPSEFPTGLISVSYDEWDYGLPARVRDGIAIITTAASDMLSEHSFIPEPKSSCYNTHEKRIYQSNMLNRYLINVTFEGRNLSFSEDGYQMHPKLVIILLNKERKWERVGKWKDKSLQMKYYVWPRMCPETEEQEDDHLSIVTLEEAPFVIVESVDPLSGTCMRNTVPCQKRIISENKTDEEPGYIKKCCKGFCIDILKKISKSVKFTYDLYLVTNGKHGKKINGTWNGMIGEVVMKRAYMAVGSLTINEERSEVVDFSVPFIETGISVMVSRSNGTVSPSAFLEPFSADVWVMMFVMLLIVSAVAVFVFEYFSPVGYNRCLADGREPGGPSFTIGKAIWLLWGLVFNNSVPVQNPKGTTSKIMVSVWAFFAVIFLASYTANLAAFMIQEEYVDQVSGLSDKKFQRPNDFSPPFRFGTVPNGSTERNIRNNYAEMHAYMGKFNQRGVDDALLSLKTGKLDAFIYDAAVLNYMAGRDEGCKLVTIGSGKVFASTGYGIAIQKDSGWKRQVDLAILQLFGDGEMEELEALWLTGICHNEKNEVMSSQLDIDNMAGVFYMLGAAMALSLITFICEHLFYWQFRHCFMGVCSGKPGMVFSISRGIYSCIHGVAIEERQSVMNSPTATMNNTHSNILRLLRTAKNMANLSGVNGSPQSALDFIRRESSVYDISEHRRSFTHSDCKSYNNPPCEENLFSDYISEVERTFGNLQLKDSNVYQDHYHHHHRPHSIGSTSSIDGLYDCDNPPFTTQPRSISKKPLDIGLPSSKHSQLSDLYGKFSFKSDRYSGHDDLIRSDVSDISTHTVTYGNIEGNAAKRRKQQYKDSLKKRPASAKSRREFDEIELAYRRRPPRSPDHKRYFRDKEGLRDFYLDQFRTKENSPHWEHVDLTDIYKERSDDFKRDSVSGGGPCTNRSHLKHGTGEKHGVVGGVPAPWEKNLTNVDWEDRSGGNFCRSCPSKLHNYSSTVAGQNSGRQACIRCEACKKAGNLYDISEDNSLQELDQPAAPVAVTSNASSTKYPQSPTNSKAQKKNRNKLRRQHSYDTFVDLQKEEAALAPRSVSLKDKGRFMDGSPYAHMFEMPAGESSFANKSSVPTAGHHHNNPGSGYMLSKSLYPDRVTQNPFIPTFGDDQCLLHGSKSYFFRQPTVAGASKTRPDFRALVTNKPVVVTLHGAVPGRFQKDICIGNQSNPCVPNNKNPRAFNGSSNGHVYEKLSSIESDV

pIC50 [1] | melting point | SMILES
7.62 | 207 to 208 °C | C=Cc1cccc(-n2cnc(Cn3ccnc3C)c2)c1.Cl.Cl [Example 172, 1H-Imidazole, 2-Methyl-1-[[1-(3-vinylphenyl)-1H-imidazol-4-yl]methyl]-, Hydrochloride (1:2)]
7.20 | > 200 °C (dec.) | CCc1nccn1Cc1cn(-c2cccc(Cl)c2)cn1.Cl.Cl [Example 174, 1H-Imidazole, 1-[[1-(3-Chlorophenyl)-1H-imidazol-4-yl]methyl]-2-ethyl-, Hydrochloride (1:2)]
7.49 | > 222 °C (dec.) | Cc1nccn1Cc1cn(-c2cccc(I)c2)cn1.Cl.Cl [Example 176, 1H-Imidazole, 1-[[1-(3-Iodophenyl)-1H-imidazol-4-yl]methyl]-2-methyl-, Hydrochloride (1:2)]
7.43 | 243 to 244 °C | CCc1nccn1Cc1cn(-c2cc(F)cc(C(F)(F)F)c2)cn1.Cl.Cl [Example 177, 1H-Imidazole, 2-Ethyl-1-[[1-[3-fluoro-5(trifluoromethyl)phenyl]-1H-imidazol-4-yl]methyl]-, Hydrochloride (1:2)]
7.13 | > 250 °C | Cc1nccn1Cc1cn(-c2cc(F)cc(C(F)(F)F)c2)cn1.Cl.Cl [Example 178, 1H-Imidazole, 1-[[1-[3-Fluoro-5(trifluoromethyl)phenyl]-1H-imidazol-4-yl]methyl]-2-methyl-, Hydrochloride (1:2)]
7.30 | 246 to 247 °C | COc1cc(-n2cnc(Cn3ccnc3C)c2)cc(C(F)(F)F)c1.Cl.Cl [Example 180, 1H-Imidazole, 1-[[1-[3-Methoxy-5(trifluoromethyl)phenyl]-1H-imidazol-4-yl]methyl]-2-methyl-, Hydrochloride (1:2)]
7.28 | > 200 °C (dec.) | Cc1nccn1Cc1cn(-c2cccc(C(C)(C)C)c2)cn1.Cl.Cl [Example 183, 1H-Imidazole, 1-[[1-(3-tert-Butylphenyl)-1H-imidazol-4-yl]methyl]-2-methyl-, Hydrochloride (1:2)]
7.28 | 221 to 222 °C | Cc1nccn1Cc1cn(-c2ccc(OC(F)(F)F)c(Cl)c2)cn1.Cl.Cl [Example 186, 1H-Imidazole, 1-[[1-[3-Chloro-4(trifluoromethoxy)phenyl]-1H-imidazol-4-yl]methyl]-2-methyl-, Hydrochloride (1:2)]
7.28 | 216 to 217 °C | CCc1nccn1Cc1cn(-c2cccc(OC(F)F)c2)cn1.Cl.Cl [Example 189, 1H-Imidazole, 1-[[1-[3-(Difluoromethoxy)phenyl]-1H-imidazol-4-yl]methyl]-2-ethyl-, Hydrochloride (1:2)]
7.26 | 205 to 207 °C | Cc1nccn1Cc1cn(-c2cccc(Br)c2)cn1.Cl.Cl [Example 192, 1H-Imidazole, 1-[[1-(3-Bromophenyl)-1H-imidazol-4-yl]methyl]-2-methyl-, Hydrochloride (1:2)]
7.10 | 195 to 196 °C | Cc1nccn1Cc1cn(-c2cccc(C(F)F)c2)cn1.Cl.Cl [Example 194, 1H-Imidazole, 1-[[1-[3-(Difluoromethyl)phenyl]-1H-imidazol-4-yl]methyl]-2-methyl-, Hydrochloride (1:2)]
7.01 | > 200 °C (dec.) | CCc1nccn1Cc1cn(-c2cc(F)cc(Br)c2)cn1.Cl.Cl [Example 199, 1H-Imidazole, 1-[[1-(3-Bromo-5-fluorophenyl)-1H-imidazol-4-yl]methyl]-2-ethyl-, Hydrochloride (1:2)]
8.00 | > 245 °C (dec.) | Cl.Cl.Nc1nccn1Cc1cn(-c2ccc3c(c2)OCO3)cn1 [Example 224, 1-(1-Benzo[1,3]dioxol-5-yl-1H-imidazol-4-ylmethyl)-1H-imidazol-2-ylamine Hydrochloride (1:2)]
